From ChEMBL document CHEMBL4251679 (J Nat Prod, 2018)
Active and inactive are the calls of the source. The rule behind the calls is not given here.

Assays:
HEY = assay: Cytotoxicity against human HEY cells after 72 to 120 hrs by sulforhodamine B assay; assay type: functional, cell-based
[1] = biological target: Tubulin beta-4 chain (Gallus gallus) (UniProt P09652); assay: Inhibition of [3H]2-m-AzTax binding to chicken erythrocyte beta-tubulin 4 at 20 uM treated for 30 mins followed by UV irradiation for 10 mins by fluorographic method relative to control
Tubulin beta-4 chain (Gallus gallus), sequence (P09652 whole entry): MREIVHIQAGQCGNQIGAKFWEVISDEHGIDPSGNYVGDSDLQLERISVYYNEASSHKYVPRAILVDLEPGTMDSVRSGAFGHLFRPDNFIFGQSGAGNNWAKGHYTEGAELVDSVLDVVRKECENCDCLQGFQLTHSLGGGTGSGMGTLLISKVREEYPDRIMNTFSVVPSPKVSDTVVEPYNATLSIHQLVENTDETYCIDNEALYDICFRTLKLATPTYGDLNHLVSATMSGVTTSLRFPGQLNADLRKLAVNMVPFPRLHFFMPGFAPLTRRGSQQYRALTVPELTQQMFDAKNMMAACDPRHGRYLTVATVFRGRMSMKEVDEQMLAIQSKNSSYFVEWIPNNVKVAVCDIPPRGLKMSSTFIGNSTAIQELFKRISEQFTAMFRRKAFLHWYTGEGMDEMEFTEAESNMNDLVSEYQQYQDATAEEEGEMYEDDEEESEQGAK

[2] = Cytotoxicity against human Hey/Ixab80 cells after 72 to 120 hrs by sulforhodamine B assay; assay type: functional, cell-based
[3] = Resistance index, ratio of IC50 for human HEY/EpoB8 cells to IC50 for human HEY cells; assay type: functional
[4] = Cytotoxicity against human Hey/EpoB8 cells after 72 to 120 hrs by sulforhodamine B assay; assay type: functional, cell-based
[5] = Resistance index, ratio of IC50 for human HEY/Ixab80 cells to IC50 for human HEY cells; assay type: functional
SK-OV-3 [6] = assay: Cytotoxicity against human SKOV3 cells after 72 to 120 hrs by sulforhodamine B assay; assay type: functional, cell-based
Bos taurus = organism: Bos taurus; assay: Inhibition of [3H]2-m-AzTax binding to bovine brain beta-tubulin at 20 uM treated for 30 mins followed by UV irradiation for 10 mins by fluorographic method relative to control
SK-OV-3 [7] = assay: Effect on [3H]vinblastine accumulation in human SKOV3 cells at 40 uM after 1 hr by liquid scintillation counting method; assay type: functional, cell-based
Homo sapiens [8] = organism: Homo sapiens; assay: Binding affinity to P-gp in human SKVLB1 cells assessed as increase in [3H]vinblastine accumulation at 40 uM after 1 hr by liquid scintillation counting method; assay type: cell-based
Homo sapiens [9] = organism: Homo sapiens; assay: Inhibition of [3H]2-m-AzTax binding to P-gp in human SKVLB1 cell plasma membranes at 40 uM treated for 30 mins followed by UV irradiation for 10 mins by fluorographic method relative to control
[10] = Resistance index, ratio of IC50 for vinblastine-resistant human SKVLB1 cells to IC50 for human SKOV3 cells; assay type: functional
[11] = Resistance index, ratio of IC50 for human HEY/Tx100 cells to IC50 for human HEY cells; assay type: functional
[12] = Cytotoxicity against vinblastine-resistant human SKVLB1 cells after 72 to 120 hrs by sulforhodamine B assay; assay type: functional, cell-based
Homo sapiens [13] = organism: Homo sapiens; assay: Inhibition of [3H]2-m-AzTax binding to P-gp in human SKVLB1 cell plasma membranes assessed as residual [3H]2-m-AzTax binding at 40 uM treated for 30 mins followed by UV irradiation measured after 10 mins by fluorographic method relative to control
[14] = Cytotoxicity against human Hey/Tx100 cells after 72 to 120 hrs by sulforhodamine B assay; assay type: functional, cell-based
SK-OV-3 [15] = assay: Cytotoxicity against human SKOV3 cells after 72 to 120 hrs in presence of verapamil by sulforhodamine B assay; assay type: functional, cell-based
[16] = Substrate activity at P-gp in human SKVLB1 cells assessed as inhibition of cell growth after 72 to 120 hrs by sulforhodamine B assay; assay type: cell-based
[17] = Substrate activity at P-gp in human SKVLB1 cells assessed as inhibition of cell growth after 72 to 120 hrs in presence of verapamil by sulforhodamine B assay; assay type: cell-based
P-gp [18] = assay: Resistance index, ratio of IC50 for substrate activity at P-gp in human SKVLB1 cells assessed as inhibition of cell growth to IC50 for human SKOV3 cells; assay type: toxicity, cell-based; settings: SKVLB1 cells (P-gp) versus SKOV3 cells, read-out: Ratio IC50
P-gp [19] = assay: Resistance index, ratio of IC50 for substrate activity at P-gp in human SKVLB1 cells assessed as inhibition of cell growth in presence of verapamil to IC50 for human SKOV3 cells in presence of verapamil; assay type: toxicity, cell-based; settings: SKVLB1 cells (P-gp) versus SKOV3 cells, with verapamil (concentration not stated), read-out: Ratio IC50
[20] = Ratio of fold resistance for substrate activity at P-gp in human SKVLB1 cells relative to sensitive human SKOV3 cells in absence of verapamil to fold resistance for substrate activity at P-gp in human SKVLB1 cells relative to sensitive human SKOV3 cells in presence of verapamil; assay type: toxicity, cell-based

inhibition [1] [%]	inhibition (Bos taurus) [%]	inhibition (Homo sapiens [9])	Activity (Homo sapiens [13]) [%]	SMILES	IC50 (HEY) [nM]	IC50 [2] [nM]	Ratio IC50 [3]	IC50 [4] [nM]	Ratio IC50 [5]	IC50 (SK-OV-3 [6]) [nM]	Activity (SK-OV-3 [7])	Activity (Homo sapiens [8])	Ratio IC50 [10]	Ratio IC50 [11]	IC50 [12] [nM]	IC50 [14] [nM]	IC50 (SK-OV-3 [15]) [nM]	IC50 [16] [nM]	IC50 [17] [nM]	further results
6	32	> 80%	14	CC(=O)O[C@@]1(C2/C(C)=C(/O)C(=O)C3=C(C)[C@@H](OC(=O)[C@H](O)[C@H](C=C(C)C)NC(=O)OC(C)(C)C)C[C@@](O)([C@H]2OC(=O)c2cccc(Cl)c2)C3(C)C)CO[C@H]1CCO (stereo partly drawn)	820	13000	17	13900	16	1.15	inactive	Active	1376	35	1580	28800				
98	9	Active	18	CC(=O)O[C@H]1C(=O)[C@@]2(C)[C@H]([C@H](OC(=O)c3ccccc3)[C@]3(O)C[C@H](OC(=O)[C@H](O)[C@@H](NC(=O)c4ccccc4)c4ccccc4)C(C)=C1C3(C)C)[C@]1(OC(C)=O)CO[C@@H]1C[C@@H]2O [PACLITAXEL]	2700	152000	8	22200	56	2.39 to 3.85		Active	5416	89	12600	240000	3.99	21200	3730	selectivity ratio (P-gp [18]): 5520; selectivity ratio (P-gp [19]): 936; Ratio [20]: 5.9
98	33	55%	45	CC(=O)O[C@@]12CO[C@@H]1C[C@H](O)[C@@]1(C)C(=O)[C@H](O)C3=C(C)[C@@H](OC(=O)[C@H](O)[C@@H](NC(=O)OC(C)(C)C)c4ccccc4)C[C@@](O)([C@@H](OC(=O)c4ccccc4)[C@H]21)C3(C)C [DOCETAXEL ANHYDROUS]	860	16200	10	8400	19	0.75		Active	4704	48	3530	41400				

More lines, now with the values behind:

SMILES	inhibition [1] [%]	inhibition (Bos taurus) [%]	inhibition (Homo sapiens [9])	Activity (Homo sapiens [13]) [%]	IC50 (HEY) [nM]	IC50 [2] [nM]	Ratio IC50 [3]	IC50 [4] [nM]	Ratio IC50 [5]	IC50 (SK-OV-3 [6]) [nM]	Activity (SK-OV-3 [7])	Activity (Homo sapiens [8])	Ratio IC50 [10]	Ratio IC50 [11]	IC50 [12] [nM]	IC50 [14] [nM]	IC50 (SK-OV-3 [15]) [nM]	IC50 [16] [nM]	IC50 [17] [nM]	further results
CC(=O)O[C@@]12CO[C@@H]1C[C@H](O)[C@@]1(C)C(=O)[C@H](OC(=O)C3CC3)C3=C(C)[C@@H](OC(=O)[C@H](O)[C@H](C=C(C)C)NC(=O)OC(C)(C)C)C[C@@](O)([C@@H](OC(=O)c4ccccc4)[C@H]21)C3(C)C	30	38	89%	11	580	1600		8000		0.62 to 1.46	inactive	Active			75.6	2300	1.44	182	46.5	
CC(=O)O[C@H]1C(=O)[C@@]2(C)[C@H]([C@H](OC(=O)c3cccc(N=[N+]=[N-])c3)[C@]3(O)C[C@H](OC(=O)[C@H](O)[C@@H](NC(=O)c4ccccc4)c4ccccc4)C(C)=C1C3(C)C)[C@]1(OC(C)=O)CO[C@@H]1C[C@@H]2O				16																
